The results in this text go back to ChEMBL document CHEMBL4043130, “Discovery of a tetrahydroisoquinoline-based HDAC inhibitor with improved plasma stability” (Bioorg Med Chem, 2017).

Data set [1] relates to MDA-MB-231. Nature of the data set: Antitumor activity against human MDA-MB-231 cells xenografted subcutaneously in BALB/c nude mouse assessed as reduction in tumor volume at 90 mg/kg, po. Format: functional, organism-based. On the technique in general: Xenograft models place foreign cells or tissue in a host animal.
In another data set the test system is U-937. Nature of the data set: Antiproliferative activity against human U937 cells after 48 hrs by MTT assay. Format: functional, cell-based. To be noted: U-937, 48 h. A general note: Tetrazolium dyes change colour on reduction, which living cells bring about.
Data set [2] in a line: Half life in rat plasma by HPLC analysis. It is filed as ADME, cell-free.
Another data set concerns U-266. As to the kind of experiment: Antiproliferative activity against human U266 cells after 48 hrs by MTT assay. It is filed as functional, cell-based. Particulars: U-266, 48 h.
Data set [3] deals with T1, Protein deacetylase HDAC6 (Homo sapiens) (UniProt Q9UBN7).
T1 sequence (whole entry): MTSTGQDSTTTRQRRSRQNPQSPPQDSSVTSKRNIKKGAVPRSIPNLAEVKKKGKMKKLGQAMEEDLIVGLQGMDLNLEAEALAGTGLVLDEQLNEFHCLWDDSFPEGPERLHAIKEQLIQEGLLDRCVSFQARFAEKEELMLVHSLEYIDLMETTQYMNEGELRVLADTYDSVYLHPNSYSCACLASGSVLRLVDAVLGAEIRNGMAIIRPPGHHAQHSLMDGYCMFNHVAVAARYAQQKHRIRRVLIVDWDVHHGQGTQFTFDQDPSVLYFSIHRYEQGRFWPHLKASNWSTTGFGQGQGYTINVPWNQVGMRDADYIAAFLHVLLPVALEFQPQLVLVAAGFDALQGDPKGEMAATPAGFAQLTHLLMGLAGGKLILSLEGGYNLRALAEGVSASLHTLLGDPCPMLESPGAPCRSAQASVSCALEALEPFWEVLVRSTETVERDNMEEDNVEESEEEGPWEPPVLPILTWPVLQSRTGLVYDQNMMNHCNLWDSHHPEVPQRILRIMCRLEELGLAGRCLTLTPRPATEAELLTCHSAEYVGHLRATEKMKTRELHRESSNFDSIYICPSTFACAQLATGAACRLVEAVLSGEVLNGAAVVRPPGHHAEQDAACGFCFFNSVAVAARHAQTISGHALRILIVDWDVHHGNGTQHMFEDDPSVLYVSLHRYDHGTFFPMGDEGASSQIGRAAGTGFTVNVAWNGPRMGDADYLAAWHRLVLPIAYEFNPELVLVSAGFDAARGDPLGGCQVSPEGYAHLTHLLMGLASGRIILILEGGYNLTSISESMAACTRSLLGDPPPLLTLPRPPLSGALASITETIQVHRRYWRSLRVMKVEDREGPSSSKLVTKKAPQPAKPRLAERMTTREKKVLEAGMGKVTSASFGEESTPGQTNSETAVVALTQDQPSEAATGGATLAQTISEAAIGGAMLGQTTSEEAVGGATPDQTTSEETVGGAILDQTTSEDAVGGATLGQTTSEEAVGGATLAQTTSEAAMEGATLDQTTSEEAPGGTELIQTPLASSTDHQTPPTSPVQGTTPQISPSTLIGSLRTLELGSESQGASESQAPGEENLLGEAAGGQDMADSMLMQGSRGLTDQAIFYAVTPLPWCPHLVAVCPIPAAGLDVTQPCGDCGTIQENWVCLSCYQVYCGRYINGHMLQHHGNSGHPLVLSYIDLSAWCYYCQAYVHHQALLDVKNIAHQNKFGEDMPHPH
Nature of the data set: Inhibition of HDAC6 in human MDA-MB-231 cells assessed as increase in acetylated alpha tubulin level at 1 uM after 3 hrs by Western blot analysis. Format: cell-based. (In western blotting, separated proteins are transferred to a membrane and probed.)

Data set [4] deals with MDA-MB-231. As to the kind of experiment: Antiproliferative activity against human MDA-MB-231 cells after 48 hrs by MTT assay. It is filed as functional, cell-based. To be noted: MDA-MB-231, 48 h.
Data set [5] is described as follows: Inhibition of HDAC in human HeLa nuclear extract preincubated for 5 mins followed by Boc-Lys (acetyl)-AMC addition measured after 10 mins by fluorescence assay.
Data set [6] has as its target Histone deacetylase 1/2/3 (Homo sapiens) (UniProt Q13547+O15379+Q92769). Nature of the data set: Inhibition of HDAC1/2/3 in human MDA-MB-231 cells assessed as increase in hyperacetylation of histone H3 level at 1 uM after 3 hrs by Western blot analysis. It is filed as cell-based.
The test system of data set [7] is MDA-MB-231. Nature of the data set: Antitumor activity against human MDA-MB-231 cells xenografted subcutaneously in BALB/c nude mouse assessed as reduction in tumor growth at 90 mg/kg, po. Format: functional, organism-based.

The source made the active and inactive calls.

With `CC[C@H](C)[C@H](NC(=O)CC(C)(C)C)C(=O)N1Cc2cc(OCC(=O)NO)ccc2C[C@H]1C(=O)Nc1ccc(N(C)C)cc1`, the inhibition entry (in the data set with MDA-MB-231 [1]; in data set [3]; in data set [6]) was “Active” each time. Besides, the IC50 (commonly the concentration that gives 50% inhibition) amounted to 0.55 µM in the data set on U-937, 0.78 µM in the data set with U-266, 2.13 µM in the data set on MDA-MB-231 [4] and 0.0385 µM in [5]. Besides, the half-life – broadly, the time needed for the level to fall by half in the phase considered – in [2] was 10.5 h. The TGI result in the data set on MDA-MB-231 [7] is “Active”.

`CC[C@H](C)[C@H](NC(=O)OC(C)(C)C)C(=O)N1Cc2cc(OCC(=O)NO)ccc2C[C@H]1C(=O)Nc1ccc(N(C)C)cc1` yielded a half-life in [2] of 2.18 h. In data set [5], this compound came in with an IC50 of 0.055 µM.

On to `CN(C)c1ccc(NC(=O)[C@@H]2Cc3ccc(OCC(=O)NO)cc3CN2C(=O)CNC(=O)CC(C)(C)C)cc1`, for which the half-life in data set [2] is 1.13 h. Also, the IC50 in [5] was determined as 0.377 µM.

For the compound `CC[C@H](C)[C@H](NC(=O)CC(C)(C)C)C(=O)N1Cc2cc(OCC(=O)NO)ccc2C[C@H]1C(=O)Nc1ccc(OC)cc1`, the inhibition result (in the data set on MDA-MB-231 [1]; in data set [3]; in data set [6]) was “Active” each time. Also, the IC50 with U-937 came to 0.56 µM; in the data set with U-266 it was 0.69 µM; in the data set with MDA-MB-231 [4], 2.56 µM; in [5] it was 0.0694 µM. In data set [2], the half-life stood at 1.72 h. Further, the TGI result in the data set on MDA-MB-231 [7] was “Active”.
